Laboratory results from patent US8153431B2, “Compositions and methods for making mutations in cell lines and animals” (ABT Holding Company, priority 2001, dated 2012).

Columns and labels:
Jurkat cells = assay: Cell survival after ENU treatment (limiting dilution); format: cell-based, human; conditions: 2 hours, with 10 uM O-6-BG
From the text: (§1) The ability to identify all genetic mutations that can create a phenotype requires that large numbers of mutations be created in as few cells as possible, and the high efficiency of ENU chemical mutagenesis is suited to this task. We set out to determine the ENU treatment needed to create 50-100 cell libraries in which all genes are mutated at least once (defined as a 1× knockout library) in Jurkat cells. To characterize the mutagenesis we measured both cell survival and the mutation rate in characterizing the optimal ENU treatment (Table I). Survival was determined by limiting dilution, and the mutation rate was estimated in the population of surviving clones based on the frequency of knocking out the single copy HPRT gene (assayed by the survival of such HPRT^− cells upon culture in the presence of 6-thioguanine). As shown in the table below, at an ENU dose of 0.2 mg/ml the mutation rate is 0.02 HPRT^− genes/cell and the 1× library size is therefore ˜50 cells. Creation of libraries of these densely mutagenized cells provides a genetically sensitized background in which small increments of further mutagenesis can create phenotypes by knocking out the sole remaining wild type alleles of ENU-mutated genes.
• Jurkat cells were treated with 10 uM O-6-BG (Sigma) at 5×10^5 cells/ml for 16 hours at 37° C. in a humidified incubator with 5% CO2. The pretreated cells were then incubated with desired concentration of ENU (Sigma) in the presence of O-6-BG for 2 hours at 37° C. with constant shaking. At the end of incubation cells were washed with 10-volume 1×PBS three times and resuspended in complete media with 10 uM O-6-BG. 24 hours later O-6-BG was washed off, cells were resuspended in complete media and seeded onto 96-well plate at 20 cells per well or 400-2000 cells per well. Cells were then cultured for 10 days. Viability is determined by the lower density seeding based on number of wells containing growing colonies. To determine mutation frequency, cells seeded at the higher density were used to select for Hprt-loss of function mutants in the presence of 40 uM 6-TG (Sigma). Number of wells containing growing colonies in the presence of 6-TG was scored 7-10 days later. Mutation frequency is calculated as # of 6-TG resistant colony divided by # of viable cells seeded.

single copy HPRT gene = assay: Mutation rate by knockout of single copy HPRT gene (6-thioguanine selection) in Jurkat cells; format: cell-based, human
From the text: as §1, with “As shown in the table below, at an ENU dose of 0.2 mg/ml the mutation rate is 0.02 HPRT^− genes/cell and the 1× library size is therefore ˜50 cells. Creation of libraries of these densely mutagenized cells provides a genetically sensitized background in which small increments of further mutagenesis can create phenotypes by knocking out the sole remaining wild type alleles of ENU-mutated genes.” left out
• Jurkat cells were treated with 10 uM O-6-BG (Sigma) at 5×10^5 cells/ml for 16 hours at 37° C. in a humidified incubator with 5% CO2. […] Viability is determined by the lower density seeding based on number of wells containing growing colonies. […] Number of wells containing growing colonies in the presence of 6-TG was scored 7-10 days later. Mutation frequency is calculated as # of 6-TG resistant colony divided by # of viable cells seeded.

CCN(N=O)C(N)=O [ENU, N-ethyl-N-nitrosourea]
% survival (Jurkat cells; ENU 0.1 mg/ml): 1.83%
% survival (Jurkat cells; ENU 0.125 mg/ml): 0.93%
% survival (Jurkat cells; ENU 0.15 mg/ml): 1.08%
% survival (Jurkat cells; ENU 0.175 mg/ml): 0.88%
% survival (Jurkat cells; ENU 0.2 mg/ml): 0.29%
% survival (Jurkat cells; ENU 0.25 mg/ml): 0.07%
mutation rate (single copy HPRT gene; ENU dose of 0.2 mg/ml, Jurkat): 0.02 HPRT^− genes/cell
genes in each cell with knockout in one copy (single copy HPRT gene; Jurkat clones after 0.2 mg/ml ENU mutagenesis): 1-3%
